Results reported in patent US5869658A, “Photochromic indeno-fused naptho[2,1-b]pyrans” (PPG Industries, Inc., priority 1997, dated 1999).

What was measured:
[1] = Photochromic response of test squares on an optical bench (ΔOD/Min, ΔOD at saturation, bleach rate); format: physicochemical; conditions: for ΔOD @ saturation: UV exposure continued for 20 minutes; for ΔOD @ saturation / ΔOD/MIN sensitivity: 75° F., 1.5×10^-3 molal in polymer; for ΔOD/MIN sensitivity: first five seconds of UV exposure, expressed per minute; for Bleach T 1/2: time to one half the highest absorbance at room temperature (75° F.) after removal of activating light
Procedure: (§1) Testing was done with the photochromic compounds described in Examples 1-5 and 7-9 in the following manner. A quantity of photochromic compound calculated to yield a 1.5×10^-3 molal solution was added to a flask containing 50 grams of a monomer blend of 4 parts ethoxylated bisphenol A dimethacrylate (BPA 2EO DMA), 1 part poly(ethylene glycol) 600 dimethacrylate, and 0.033 weight percent 2,2'-azobis(2-methyl propionitrile) (AIBN). The photochromic compound was dissolved into the monomer blend by stirring and gentle heating. After a clear solution was obtained, it was poured into a flat sheet mold having the interior dimensions of 2.2 mm×6 inches (15.24 cm)×6 inches (15.24 cm). The mold was sealed and placed in a horizontal air flow, programmable oven programmed to increase the temperature from 40° C. to 95° C. over a 5 hour interval, hold the temperature at 95° C. for 3 hours and then lower it to 60° C. for at least 2 hours. After the mold was opened, the polymer sheet was cut using a diamond blade saw into 2 inch (5.1 centimeters) test squares.
The photochromic test squares prepared in Part A were tested for photochromic response on an optical bench. Prior to testing on the optical bench, the photochromic test squares were exposed to 365 nanometer ultraviolet light for about 15 minutes to activate the photochromic compounds and then placed in a 76° C. oven for about 15 minutes to bleach or inactivate the photochromic compounds. The test squares were then cooled to room temperature, exposed to fluorescent room lighting for at least 2 hours and then kept covered for at least 2 hours prior to testing on an optical bench maintained at 75° F. (23.90° C.). The bench was fitted with a 150 watt Xenon arc lamp, a remote controlled shutter, a copper sulfate bath acting as a heat sink for the arc lamp, a Schott WG-320 nm cut-off filter which removes short wavelength radiation; neutral density filter(s) and a sample holder in which the square to be tested was inserted. A collimated beam of light from a tungsten lamp was passed through the square at a small angle (approximately 30°) normal to the square. After passing through the square, the light from the tungsten lamp was directed to a detector through Spectral Energy Corp. GM-200 monochromator set at the previously determined visible lambda max of the photochromic compound being measured. The output signals from the detector were processed by a radiometer.
Change in optical density (ΔOD) was determined by inserting a test square in the bleached state into the sample holder, adjusting the transmittance scale to 100% opening the shutter from the Xenon lamp to provide ultraviolet radiation to change the test square from the bleached state to an activated (i.e., darkened) state, measuring the transmittance in the activated state, and calculating the change in optical density according to the formula: ΔOD=log(100/%Ta), where %Ta is the percent transmittance in the activated state and the logarithm is to the base 10.
The Δ OD/Min, which represents the sensitivity of the photochromic compound's response to UV light, was measured over the first five (5) seconds of UV exposure, then expressed on a per minute basis. The saturation optical density (Δ OD@ Sat) was taken under identical conditions as the Δ OD/Min, except UV exposure was continued for 20 minutes. The lambda max (Vis) is the wavelength in the visible spectrum at which the maximum absorption of the activated (colored) form of the photochromic compound in a test square occurs. The lambda max (Vis) wavelength was determined by testing the photochromic test square polymerizates of Part A in a Varian Cary 3 UV-Visible spectrophotometer. The lambda (λ) max (UV) is the wavelength in the ultraviolet range closest to the visible spectrum at which the absorption of the photochromic compound occurs. This absorption was also determined with the same spectrophotometer. […]

[2] = Lambda max of photochromic test squares by UV-Visible spectrophotometer; format: physicochemical; design: unit not given here; conditions: Varian Cary 3; for (λ) max (VIS): activated (colored) form in polymer test square, visible spectrum wavelength of maximum absorption; for (λ) max (UV): photochromic compound in polymer test square, ultraviolet wavelength closest to the visible spectrum
Procedure: as §1
The Δ OD/Min, which represents the sensitivity of the photochromic compound's response to UV light, was measured over the first five (5) seconds of UV exposure, then expressed on a per minute basis. The saturation optical density (Δ OD@ Sat) was taken under identical conditions as the Δ OD/Min, except UV exposure was continued for 20 minutes. The lambda max (Vis) is the wavelength in the visible spectrum at which the maximum absorption of the activated (colored) form of the photochromic compound in a test square occurs. The lambda max (Vis) wavelength was determined by testing the photochromic test square polymerizates of Part A in a Varian Cary 3 UV-Visible spectrophotometer. The lambda (λ) max (UV) is the wavelength in the ultraviolet range closest to the visible spectrum at which the absorption of the photochromic compound occurs. This absorption was also determined with the same spectrophotometer. The bleach rate (T 1/2) is the time interval in seconds for the absorbance of the activated form of the photochromic compound in the test squares to reach one half the highest absorbance at room temperature (75° F., 23.90° C.) after removal of the source of activating light.

SMILES	ΔOD @ saturation [1]	ΔOD/MIN sensitivity [1]	Bleach T 1/2 [1] [s]	(λ) max (VIS) [2]	(λ) max (UV) [2]
COc1ccc2c3c(c4c(c2c1)C=CC(c1ccccc1)(c1ccccc1)O4)Cc1ccccc1-3 [Example 1, 6-methoxy-2,2-diphenyl-2,13-dihydro-indeno[1'2':4,3]naphtho[2,1-b]pyran]	0.38	0.52 ΔOD/MIN	42	437	366
COc1cc2c3c(c4c(c2cc1OC)-c1ccccc1C4)OC(c1ccccc1)(c1ccccc1)C=C3 [Example 2, 6,7-dimethoxy-2,2-diphenyl-2,13-dihydro-indeno[1'2':4,3]naphtho[2,1-b]pyran]	0.44	0.48 ΔOD/MIN	51	443	387
COc1ccc(C2(c3ccccc3F)C=Cc3c(c4c(c5cc(OC)c(OC)cc35)-c3ccccc3C4)O2)cc1 (stereo not shown) [Example 3, 6,7-dimethoxy-2-(2-fluorophenyl)-2-(4-methoxyphenyl)-2,13-dihydro-indeno[1',2':4,3]naphtho[2,1-b]pyran]	1.22	0.48 ΔOD/MIN	227	464	385
COc1cc2c3c(c4c(c2cc1OC)-c1ccccc1C4C)OC(c1ccccc1)(c1ccccc1)C=C3 (stereo not shown) [Example 4, 6,7-dimethoxy-2,2-diphenyl-13-methyl-2,13-dihydro-indeno[1',2':4,3]naphtho[2,1-b]pyran]	0.38	0.43 ΔOD/MIN	62	442	356
COc1cc2c3c(c4c(c2cc1OC)-c1ccccc1C4(C)C)OC(c1ccccc1)(c1ccccc1)C=C3 [Example 5, 6,7-dimethoxy-2,2-diphenyl-13,13-dimethyl-2,13-dihydro-indeno[1',2':4,3]naphtho[2,1-b]pyran]	0.37	0.39 ΔOD/MIN	58	446	358
CCCCC1(O)c2ccccc2-c2c1c1c(c3cc(OC)c(OC)cc23)C=CC(c2ccccc2)(c2ccccc2)O1 (stereo not shown) [Example 7, 6,7-dimethoxy-2,2-diphenyl-13-hydroxy-13-butyl-2,13-dihydro-indeno[1',2':4,3]naphtho[2,1-b]pyran]	0.23	0.41 ΔOD/MIN	38	445	356
COc1cc2c3c(c4c(c2cc1OC)-c1ccccc1C4(C)O)OC(c1ccccc1)(c1ccccc1)C=C3 (stereo not shown) [Example 8, 6,7-dimethoxy-2,2-diphenyl-13-hydroxy-13-methyl-2,13-dihydro-indeno[1',2':4,3]naphtho[2,1-b]pyran]	0.25	0.41 ΔOD/MIN	35	459	361
COc1cc2c3c(c4c(c2cc1OC)-c1ccccc1C4O)OC(c1ccccc1)(c1ccccc1)C=C3 (stereo not drawn) [Example 9, 6,7-dimethoxy-2,2-diphenyl-13-hydroxy-2,13-dihydro-indeno[1',2':4,3]naphtho[2,l-b]pyran]	0.17	0.28 ΔOD/MIN	31	469	359
